In data set [1] the target is T1, purified recombinant CDC25C enzyme (MBP-CDC25C protein) (Homo sapiens, UniProt P30307).
T1 construct: made in house
T1 sequence (P30307 1-473): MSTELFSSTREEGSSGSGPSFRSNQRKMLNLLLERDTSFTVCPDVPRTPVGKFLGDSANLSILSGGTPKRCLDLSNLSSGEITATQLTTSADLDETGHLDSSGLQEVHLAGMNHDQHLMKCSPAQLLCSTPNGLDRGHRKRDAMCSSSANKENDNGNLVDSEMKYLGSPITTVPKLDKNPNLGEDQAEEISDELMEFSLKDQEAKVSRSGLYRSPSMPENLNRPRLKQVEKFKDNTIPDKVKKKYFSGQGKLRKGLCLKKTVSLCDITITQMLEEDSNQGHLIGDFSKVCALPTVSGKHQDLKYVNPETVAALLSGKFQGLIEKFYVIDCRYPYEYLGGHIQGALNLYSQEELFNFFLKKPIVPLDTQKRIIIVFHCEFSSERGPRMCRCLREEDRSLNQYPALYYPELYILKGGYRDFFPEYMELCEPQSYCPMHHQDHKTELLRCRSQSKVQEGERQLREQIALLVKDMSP
The experiment in a line: Phosphatase activity of the purified recombinant CDC25C enzyme (OMFP dephosphorylation, fluorescence). In kind it is biochemical. The conditions noted are these: OMFP 500 μM, 4 hours at 30° C., three independent experiments; nested upper bounds; read-out: IC50 for the phosphatase activity of the purified recombinant CDC25-C enzyme. The procedure: i) Determination of the Phosphatase Activity of the Purified Recombinant CDC25C Enzyme:
The phosphatase activity of the MBP-CDC25C protein is evaluated through its dephosphorylation of 3-O-methylfluorescein-phosphate (OMFP) to form 3-O-methylfluorescein (OMF), determining the fluorescence of the reaction product at 475 nm. This assay can be used to identify inhibitors of the recombinant CDC25 enzyme. The preparation of the MBP-CDC25C fusion protein is described in the PCT patent application published under the number WO 01/44467.
The reaction is performed in 384-well plates in a final volume of 50 μl. The MBP-CDC25C protein (prepared as described hereinabove) is stored in the following elution buffer: 20 mM Tris-HCl pH 7.4; 250 mM NaCl; 1 mM EDTA; 1 mM dithiothreitol (DTT); 10 mM maltose. It is diluted to a concentration of 60 μM in the following reaction buffer: 50 mM Tris-HCl pH 8.2; 50 mM NaCl; 1 mM DTT; 20% glycerol. The background noise is determined using with the buffer without adding the enzyme. The products are tested at decreasing concentrations from 40 μM. The reaction is initiated by the addition of OMFP solution to a final concentration of 500 μM (prepared immediately before use from a 12.5 mM stock solution in 100% DMSO (Sigma #M2629)). After 4 hours at 30° C. in a disposable 384-well plate, the fluorescence measured at OD 475 nm is read on a Victor^2 plate reader (EGG-Wallac). The concentration that produces 50% inhibition of the enzyme reaction is calculated from three independent experiments. Only the values that fall within the linear part of the sigmoid curve are used for the linear regression analysis.

The subject of data set [2] is MIA PaCa-2 (human pancreatic carcinoma cells). The experiment in a line: Anti-proliferative activity, MIA PaCa-2 cells (WST1 colorimetric test). The data set is classed as cell-based. To be noted: MIA PaCa-2, 96 h, 96 hours treatment, up to 10 μM, nested upper bounds, read-out: IC50 for proliferation of the MIA PaCa-2 cell lines. As for the experimental part: (§1) ii) Characterisation of Anti-Proliferative Activity:
(§2) By way of an example, the effect of treating two human cell lines MIA PaCa-2 and DU 145 with the compounds of the examples described hereinbefore will be studied. The cell lines DU 145 (human prostate carcinoma cells) and MIA PaCa-2 (human pancreatic carcinoma cells) were obtained from the American Tissue Culture Collection (Rockville, Md., USA). A 96-well plate was inoculated on day 0 with cells in 80 μl of Dulbecco's modified Eagle's medium (Gibco-Brl, Cergy-Pontoise, France) with 10% heat-inactivated foetal calf serum (Gibco-Brl, Cergy-Pontoise, France), 50,000 units/l of penicillin and 50 mg/l of streptomycin (Gibco-Brl, Cergy-Pontoise, France) and 2 mM of glutamine (Gibco-Brl, Cergy-Pontoise, France). The cells were treated on day 1 for 96 hours with increasing concentrations of each test compound up to 10 μM. At the end of this period, cell proliferation is quantified by means of a colorimetric test based on cleavage of the tetrazolium salt WST1 by the mitochondrial dehydrogenases in the viable cells, resulting in formation of formazan (Boehringer Mannheim, Meylan, France). These tests are performed in duplicate with 8 determinations per concentration tested. For each test compound, the values within the linear part of the sigmoid curve were subjected to linear regression analysis and used to estimate the IC50 inhibitory concentration. The products are solubilised in dimethylsulfoxide (DMSO) at a concentration of 10^−2 M and used in culture with a final DMSO concentration of 0.1%.
In general terms: Tetrazolium dyes change colour on reduction, which living cells bring about.

Data set [3] concerns DU 145 (human prostate carcinoma cells). As to the kind of experiment: Anti-proliferative activity, DU 145 cells (WST1 colorimetric test). The data set is classed as cell-based. The conditions noted are these: DU-145, 96 h, 96 hours treatment, up to 10 μM, nested upper bounds, read-out: IC50 for proliferation of the DU 145 cell lines. The procedure: as §1, §2

Each structure is given as a SMILES string.

By melting point is commonly meant the temperature of the solid-liquid transition. For `CN(CCNc1cc(N2CCCC2)nc(N2CCCC2)n1)CCNc1c(Nc2ccc(Cl)cc2)c(=O)c1=O` [Example 8, 3-[(4-chlorophenyl)amino]-4-({2-[{2-[(2,6-dipyrrolidin-1-ylpyrimidin-4-yl)amino]ethyl}(methyl)amino]ethyl}amino)cyclobut-3-ene-1,2-dione], the melting point is 144 to 146 °C. In addition, in data set [1], the IC50 is no more than 5 µM. The IC50 in data set [2] is no more than 10 µM. Further, the IC50 in data set [3] was no more than 10 µM.

For the compound `O=c1c(NCCNc2cc(N3CCCC3)nc(N3CCCC3)n2)c(Nc2ccc(Cl)c(C(F)(F)F)c2)c1=O` [Example 10, 3-{[4-chloro-3-(trifluoromethyl)phenyl]amino}-4-({2-[(2,6-dipyrrolidin-1-ylpyrimidin-4-yl)amino]ethyl}amino)cyclobut-3-ene-1,2-dione], the melting point lay within 216 to 218 °C. The IC50 in data set [1] is no more than 15 µM. In addition, the IC50 in data set [2] is no more than 10 µM. Moreover, the IC50 in data set [3] was no more than 10 µM.

Regarding `O=c1c(NCCNc2cc(N3CCCC3)nc(N3CCCC3)n2)c(Nc2cccc(Cl)c2)c1=O` [Example 17, 3-[(3-chlorophenyl)amino]-4-({2-[(2,6-dipyrrolidin-1-ylpyrimidin-4-yl)amino]ethyl}amino)cyclobut-3-ene-1,2-dione], the melting point was in the range of 209 to 211 °C. The IC50 in data set [1] was no more than 5 µM. The IC50 in data set [2] is no more than 10 µM. Further, the IC50 in data set [3] was no more than 10 µM.

For `COc1ccc(Nc2c(NCCNc3cc(N4CCCC4)nc(N4CCCC4)n3)c(=O)c2=O)cc1` [Example 18, 3-({2-[(2,6-dipyrrolidin-1-ylpyrimidin-4-yl)amino]ethyl}amino)-4-[(4-methoxyphenyl)amino]cyclobut-3-ene-1,2-dione], the melting point was 235 to 237 °C. In addition, the IC50 in data set [1] is no more than 1 µM. In data set [2], the IC50 is no more than 10 µM. The IC50 in data set [3] is no more than 10 µM.

With `CC(=O)c1ccc(Nc2c(NCCNc3cc(N4CCCC4)nc(N4CCCC4)n3)c(=O)c2=O)cc1` [Example 19, 3-[(4-acetylphenyl)amino]-4-({2-[(2,6-dipyrrolidin-1-ylpyrimidin-4-yl)amino]ethyl}amino)cyclobut-3-ene-1,2-dione], the melting point fell in the range of 186 to 188 °C. In addition, the IC50 in data set [1] was no more than 1 µM. Also, in data set [2], the IC50 is no more than 10 µM. Moreover, the IC50 in data set [3] was no more than 10 µM.

In the case of `COc1cccc(Nc2c(NCCNc3cc(N4CCCC4)nc(N4CCCC4)n3)c(=O)c2=O)c1` [Example 20, 3-({2-[(2,6-dipyrrolidin-1-ylpyrimidin-4-yl)amino]ethyl}amino)-4-[(3-methoxyphenyl)amino]cyclobut-3-ene-1,2-dione], the melting point lay within 205 to 207 °C. Moreover, the IC50 in data set [1] is no more than 5 µM. Also, the IC50 in data set [2] was no more than 10 µM. Moreover, in data set [3], the IC50 was no more than 10 µM.

`O=c1c(NCCNc2cc(N3CCCC3)nc(N3CCCC3)n2)c(Nc2ccc(C3CCCCC3)cc2)c1=O` [Example 23, 3-[(4-cyclohexylphenyl)amino]-4-({2-[(2,6-dipyrrolidin-1-ylpyrimidin-4-yl)amino]ethyl}amino)cyclobut-3-ene-1,2-dione] came in with a melting point of 218 to 220 °C. The IC50 in data set [1] was no more than 5 µM. In data set [2], the IC50 was no more than 10 µM. In addition, the IC50 in data set [3] was no more than 10 µM.

`CC(C)(C)OC(=O)NCc1ccc(Nc2c(NCCNc3cc(N4CCCC4)nc(N4CCCC4)n3)c(=O)c2=O)cc1` [Example 25, tert-butyl (4-{[2-({2-[(2,6-dipyrrolidin-1-ylpyrimidin-4-yl)amino]ethyl}amino)-3,4-dioxocyclobut-1-en-1-yl]amino}benzyl)carbamate] displayed a melting point of 176 to 180 °C. Further, in data set [1], the IC50 was no more than 1 µM. In data set [2], the IC50 was no more than 10 µM. Moreover, in data set [3], the IC50 is no more than 10 µM.

In turn, `O=c1c(NCCNc2cc(N3CCCC3)nc(N3CCCC3)n2)c(Nc2ccc3c(c2)OCO3)c1=O` [Example 26, 3-(1,3-benzodioxol-5-ylamino)-4-({2-[(2,6-dipyrrolidin-1-ylpyrimidin-4-yl)amino]ethyl}amino)cyclobut-3-ene-1,2-dione] displayed a melting point of 180 to 190 °C. For the same compound, the IC50 in data set [1] is no more than 1 µM. In addition, in data set [2], the IC50 is no more than 10 µM. Moreover, in data set [3], the IC50 is no more than 10 µM.

For the compound `CC(C)(C)OC(=O)NCCc1ccc(Nc2c(NCCNc3cc(N4CCCC4)nc(N4CCCC4)n3)c(=O)c2=O)cc1` [Example 29, tert-butyl [2-(4-{[2-({2-[(2,6-dipyrrolidin-1-ylpyrimidin-4-yl)amino]ethyl}amino)-3,4-dioxocyclobut-1-en-1-yl]amino}phenyl)ethyl]carbamate], the melting point lay in the range of 216 to 218 °C. Moreover, the IC50 in data set [1] was no more than 1 µM. For the same compound, the IC50 in data set [2] is no more than 10 µM. For the same compound, the IC50 in data set [3] is no more than 10 µM.

In turn, `O=c1c(NCCNc2cc(N3CCCC3)nc(N3CCCC3)n2)c(Nc2ccc(F)cc2)c1=O` [Example 31, 3-({2-[(2,6-dipyrrolidin-1-ylpyrimidin-4-yl)amino]ethyl}amino)-4-[(4-fluorophenyl)amino]cyclobut-3-ene-1,2-dione] registered a melting point of 241 to 243 °C. For the same compound, in data set [1], the IC50 was no more than 1 µM. Moreover, in data set [2], the IC50 is no more than 10 µM. In addition, the IC50 in data set [3] is no more than 10 µM.

`N#Cc1ccc(Nc2c(NCCNc3cc(N4CCCC4)nc(N4CCCC4)n3)c(=O)c2=O)cc1` [Example 33, 3-({2-[(2,6-dipyrrolidin-1-ylpyrimidin-4-yl)amino]ethyl}amino)-4-[(4-cyanophenyl)amino]cyclobut-3-ene-1,2-dione] returned a melting point greater than 250 °C. Besides, the IC50 in data set [1] is no more than 1 µM. Moreover, the IC50 in data set [2] is no more than 10 µM. For the same compound, the IC50 in data set [3] is no more than 10 µM.

The values above are taken from patent US20100173910A1, “TRIAMINOPYRIMIDINE CYCLOBUTENEDIONE DERIVATIVES USED AS PHOSPHATASE CDC25 INHIBITORS” (IPDRN PHSTMS D.S.S., priority 2007, published 2010).
